≈ marks a conversion by molar mass, not a printed value. Non-standard residues stand in square brackets, D forms with d. Residues, ends and D or L forms follow the SMILES beside them. *: point of attachment. NBD = O=[N+]([O-])c1ccc(*)c2nonc12; Dap = NC[C@H](N)C(=O)O

We go through 2 compounds from publication PMC4398456, “Evidence for a Novel Mechanism of Antimicrobial Action of a Cyclic R-,W-Rich Hexapeptide” (PLoS ONE, 2015).

For one assay, the system named is B. subtilis L-170. Nature of the assay: HPLC uptake study with o-nitroaniline modification. The following applies: 10^9 cells/ml DPBSG, 24 μM peptide, 30 min, 37°C; o-nitroaniline treatment; fluorescence HPLC; three independent experiments in triplicates. Format: cell-based. The text has this:
(§1) As the cytoplasmic membrane of bacteria has been identified as the target of cWFW, cell wall-deficient L-form strains derived from E. coli (LWF+) and B. subtilis (L-170) were used to quantify peptide uptake into the cytoplasm. The approach, originally developed for the investigation of peptide uptake into eukaryotic cells, is based on chemical modification of the amino group of lysine side chains with o-nitroaniline and fluorescence-based HPLC detection of non-modified and modified sequences. Fluorescence labelling was necessary for quantification of cyclic hexapeptide uptake.
(§2) Cells were cultivated to an OD550 ± 0.8 in conical flasks as described above. After harvesting and centrifugation at 2000 × g (Sigma 3K12, Germany) for 12 min and removal of culture medium, cells were washed twice with DPBSG (DPBS containing 1g/l glucose). […] Protein content was determined with BCA Protein Assay Kit (Thermo Scientific, Germany) according to manufacturer’s instructions. […]
(§3) HPLC analysis was performed as described before using a Jasco LC-2000 Plus (U.S.) with a ProntoSil 300-5-C18-H column (250 × 4.6 mm, 5 μm) (Bischoff Chromatography, Germany) and a precolumn with PolyenCap A300, 10 μm. Peptide amounts were quantified via calibration curves for carboxyfluorescein (ex 445 nm, em 520 nm, gain 1000) and NBD fluorescence (ex 470 nm, em 520 nm, gain 1000), respectively.

For another assay, the system named is E. coli L-WF+. Nature of the assay: HPLC uptake study with o-nitroaniline modification. The assay is classed as cell-based. To be noted: 10^9 cells/ml DPBSG, 24 μM peptide, 30 min, 37°C; o-nitroaniline treatment; fluorescence HPLC; three independent experiments in triplicates.
Description: as §1, §2, §3

A further assay deals with E. coli DH5α. To be noted: microdilution; reported before; cited from earlier work. Background: Dilution methods test growth across graded concentrations, often in twofold steps.
The subject of the next assay is B. subtilis DSM 347. To be noted: microdilution; reported before; cited from earlier work.
A further assay has as its system E. coli. As to the kind of experiment: Peptide localisation by fluorescence microscopy (CLSM). Format: cell-based. The following applies: 12 μM peptide, 30 minutes, LB-agarose pad; at least three independent experiments. The protocol: Cells from an overnight culture were diluted 1:100 in fresh medium and grown to mid-log phase. LB-agarose pads were prepared by adding 1.5% agarose to LB medium and heated until the agarose was completely dissolved. In the case of translocation experiments the solution was slightly cooled down before peptides were added at a final concentration of 12 μM. 100 μl LB-agarose was applied to a cover slip and stored at 8°C in the dark for ~30 minutes. The hardened LB-pad was placed on top of 10 μl of bacterial culture (OD600 0.4) and live cell imaging was performed for up to 100 minutes in a heat controlled chamber to avoid desiccation.
Specific staining of CL with NAO has been shown before and is neither influenced by fixation nor depolarisation of the membrane. The emission shift from green to red fluorescence (513 nm to 640 nm) was reported to be exclusive for binding to CL and is caused by narrow stacking of dye molecules. Images were captured using a Zeiss Axiovert M200 inverted fluorescence microscope and an LSM 510 ConfoCor2 (Germany) with plan-apochromat 63, 100×/1.4 objective, respectively, and processed with ImageJ.

Another assay deals with B. subtilis. The description is as above. The assay is classed as cell-based. The following applies: 12 μM peptide, 30 minutes, LB-agarose pad; at least three independent experiments.

For the compound `N=C(N)NCCC[C@@H]1NC(=O)[C@H](CCCCN)NC(=O)[C@H](Cc2c[nH]c3ccccc23)NC(=O)[C@H](CNc2ccc([N+](=O)[O-])c3nonc23)NC(=O)[C@H](Cc2c[nH]c3ccccc23)NC(=O)[C@H](CCCCN)NC1=O` [cR2[NBD]] (cyclo(KRKW[Dap](NBD)W)), the “fraction of unmodified peptide, inaccessible for chemical modification, of the total cell-bound peptides” value is listed as roughly 30% with B. subtilis L-170 and “about 20%” with E. coli L-WF+. In addition, in the assay with E. coli DH5α, the “MIC E. coli DH5α” value was 50 µM (≈ 51.7 µg/mL). Further, in the assay on B. subtilis DSM 347, the “MIC B. subtilis DSM 347” value was 12 µM (≈ 12.4 µg/mL).
As for `N=C(N)NCCC[C@@H]1NC(=O)[C@H](CCCNC(=N)N)NC(=O)[C@H](Cc2c[nH]c3ccccc23)NC(=O)[C@H](CNc2ccc([N+](=O)[O-])c3nonc23)NC(=O)[C@H](Cc2c[nH]c3ccccc23)NC(=O)[C@H](CCCNC(=N)N)NC1=O` [cW[NBD]W] (cyclo(RRRW[Dap](NBD)W)), the “peptide localisation in live cells” value with E. coli and in the assay on B. subtilis was “not detectable within the cytoplasm” each time. The “MIC E. coli DH5α” value in the assay on E. coli DH5α was 50 µM (≈ 54.5 µg/mL). In addition, the “MIC B. subtilis DSM 347” value with B. subtilis DSM 347 was 25 µM (≈ 27.3 µg/mL).
